The record followed here is patent US20190175633A1, “REACTIVE, LIPOPHILIC NUCLEOSIDE BUILDING BLOCKS FOR THE SYNTHESIS OF HYDROPHOBIC NUCLEIC ACIDS” (Ionovation GmbH, priority 2017, published 2019).

Data set [1] has as its system various cancer cells. In words: Oncological tests, summary over FIGS. 10 to 17. Conditions: ovarian, colon and kidney cancer cells. The format is cell-based. From the text:
(§1) FIGS. 10 to 17 show the activity of compounds ESP_2.2, ESP_2.5 and ESP_31 according to the invention as well as the comparative examples ESP_2 and ESP_3 (Table 4) in relation to the concentration employed against various different cancer cells. […] The x-axis depicts the molar concentration of the respective compound on a logarithmical scale.

The test system of data set [2] is human colorectal adenocarcinoma cell line HCT15. The format is cell-based. The following applies: for activity on cell growth (growth inhibition / cytotoxic effect): HCT-15, FIGS. 14 and 15. The source says: The x-axis depicts the molar concentration of the respective compound on a logarithmical scale.
Data set [3] relates to IGR-OV1 cells. As to the kind of experiment: Oncological test against IGR-OV1 cells. The format is cell-based, human. Conditions: IGR-OV1, FIGS. 12 and 13.
Source text: as §1
The epithelial morphology of IGR-OV1 cells was retained during in vitro and in vivo passages. Two cytogenetic markers characterize IGR-OV1 cells: a paracentric inversion of chromosome 3, and a translocation between chromosomes 2 and 5. These characteristics make the IGR-OV1 cell line a suitable experimental model for the treatment of human ovarian carcinomas and for biological studies of human solid tumors.

In data set [4] the test system is primary clear renal cell adenocarcinoma (cell line 786-0). In words: Oncological test against 786-0 cells. The following applies: 786-0, FIGS. 16 and 17. The format is cell-based.
Source text: as §1
This cell line is derived from a primary clear renal cell adenocarcinoma. The cells display both microvilli and desmosomes, and can be grown in soft agar. The cells produce a PTH like peptides that is identical to peptides produced by breast and lung tumors. The peptide has an N terminal sequence similar to PTH, has PTH like activity, and has a molecular weight of 6000 daltons.

Entries after “also recorded” stand apart in the source; their conditions may differ.

By melting point is commonly meant the temperature, or range, at which the solid turns liquid. Take `CCCCCCCCCCCCCCCCCCN(CCCCCCCCCCCCCCCCCC)CC(=O)O` [Compound 37, N,N-dioctadecylglycine]: the melting point was 102 to 103 °C.

Compound `CCCCCCCCCCCCCCCCCCN(CCCO)CCCCCCCCCCCCCCCCCC` [Compound 42, 3-(Dioctadecylamino)propanol] returned a melting point of 48 to 49 °C.

Compound `CCCCCCCCCC1(CCCCCCCCC)O[C@@H]2[C@H](O1)[C@@H](CO)O[C@H]2n1ccc(=O)[nH]c1=O` [Compound 25b, 1-((3aR,4R,6R,6aR)-6-(hydroxymethyl)-2,2-dinonyltetrahydrofuro[3,4-d][1,3]dioxol-4-yl)pyrimidin-2,4(1H,3H)-dione] had a melting point of 69.8 °C.

In turn, `C#CCN(CC#C)CCCCCCCCCCCCCCCCCC` [Compound 57, N-Octadecyl-N,N-diprop-2-ynylamine] had a melting point of 43 to 44 °C.

Turning to `CCCCCCCCCCCCCCCCCCNC(=O)CCCO` [Compound 62, 4-Hydroxy-N-octadecylbutanamide], the melting point lay in the range of 86 to 87 °C.

As for `CCCCCCCCCCCCCC1(CCCCCCCCCCCCC)O[C@@H]2[C@H](O1)[C@@H](CO)O[C@H]2n1ccc(=O)[nH]c1=O` [Compound 25c, 1-((3aR,4R,6R,6aR)-6-(hydroxymethyl)-2,2-ditridecyltetrahydrofuro[3,4-d][1,3]dioxol-4-yl)pyrimidin-2,4(1H,3H)-dione], the melting point came to 90.1 °C.

The compound `CCCCCCCCCCCCCCCCCCNC(=O)CCC(=O)OC` [Compound 59, Methyl 4-(octadecylamino)-4-oxobutanoate] gave a melting point of 86 to 87 °C.

`C#CCN(CCCCO)CCCCCCCCCCCCCCCCCC` [Compound 63, 4-[Octadecyl(prop-2-ynyl)amino]butan-1-ol] gave a melting point of 33 to 34 °C.

With `CCCCCCCCCCCCCCCCCCN1CCCC1`, the melting point is 25 to 27 °C.

Turning to `CCCCCCCCCCCCCCCCCCNCCCCO` [Compound 60, 4-(Octadecylamino)butan-1-ol], the melting point is 68 to 69 °C.

Turning to `CCOC(=O)CCC1(C)O[C@@H]2[C@H](O1)[C@@H](CO)O[C@H]2n1ncc(=O)n(C/C=C(\C)CC/C=C(\C)CCC=C(C)C)c1=O` (stereo partly drawn) [ESP_2.5, Ethyl-3-((3aR,4R,6R,6aR)-4-(3,5-dioxo-4-((2E,6E)-3,7,11-trimethyldodeca-2,6,10-trien-1-yl)-4,5-dihydro-1,2,4-triazin-2 (3H)-yl)-6-(hydroxymethyl)-2-methyltetrahydrofuro[3,4-d][1,3]dioxol-2-yl)propanoate], the “activity / cytotoxicity against various cancer cells” value in data set [1] is reported as “particular high cytotoxicity”. Further, the “activity on cell growth (growth inhibition / cytotoxic effect)” value in data set [2] is listed as “increased activity”; in data set [3], “improved inhibition effect”; in data set [4] it was “high cytotoxic effect”. Besides, the “death of the cells (cytotoxic effect)” value in data set [2] (HCT-15, employed in high dosage) is “over 50%”.

In the case of `CCCCCCCCCCCCCCCCCCN(CCCCCCCCCCCCCCCCCC)C(=O)CCC(=O)OC` [Compound 47, Methyl 4-(dioctadecylamino)-4-oxobutanoate], the melting point is 29 to 30 °C.

`CCCCCCCCCCCCCCCCCCN(CCBr)CCCCCCCCCCCCCCCCCC` showed a melting point of 69 to 71 °C.

Regarding `O=c1ccn([C@@H]2O[C@H](CO)[C@@H](O)[C@H]2O)c(=O)[nH]1` [ESP_3, uridine, reference compound], the results for the “activity on cell growth (growth inhibition / cytotoxic effect)” value in data set [3] and in data set [4] were “did not even cause a growth inhibition” and “does not show any activity at all; also recorded: did not show any activity at all”, respectively.

`CCOC(=O)CC[C@@]1(C)O[C@@H]2[C@H](O1)[C@@H](COC(c1ccccc1)(c1ccccc1)c1ccc(OC)cc1)O[C@H]2n1ncc(=O)[nH]c1=O` [ESP_2.2, Ethyl-3-((3aR,4R,6R,6aR)-4-(3,5-dioxo-4,5-dihydro-1,2,4-triazin-2(3H)-yl)-6-(((4-methoxyphenyl)diphenylmethoxy)methyl)-2-methyltetrahydrofuro[3,4-d][1,3]dioxol-2-yl)propanoate]: the “activity on cell growth (growth inhibition / cytotoxic effect)” value in data set [2] was “increased activity”; in data set [3], “activity of the compound could be increased”.

Compound `CCCCCCCCCCCCCCCCCCN(CCCCO)CCCCCCCCCCCCCCCCCC` [Compound 48a, 4-(Dioctadecylamino)butan-1-ol] had a melting point of 57 to 58 °C.

Take `CCCCCCCCCC1(CCCCCCCCC)OC2[C@@H](CO)O[C@@H](n3ccc(=O)[nH]c3=O)[C@H]2O1` (stereo partly drawn) [ESP_31]: the “activity on cell growth (growth inhibition / cytotoxic effect)” value was “high cytotoxic activity” in data set [2], “vast improvement with respect to the cytotoxic activity” in data set [3] and “cytotoxic effect” in data set [4].

Compound `COc1ccc(C(OC[C@H]2O[C@@H](n3cnc4c(=O)n(C/C=C(\C)CCC=C(C)C)cnc43)C[C@@H]2O)(c2ccccc2)c2ccc(OC)cc2)cc1` [Compound 4a, 9-((2R,4S,5R)-5-((Bis(4-methoxyphenyl)(phenyl)methoxy)-methyl)-4-hydroxytetrahydrofuran-2-yl)-1-((E)-3,7-di-methylocta-2,6-dienyl)-1H-purin-6(9H)-one] displayed a melting point of 74 °C.

On to `CCCCCCCCCCCCCCCC1(CCCCCCCCCCCCCCC)OC2C(CO)OC(n3ccc(=O)[nH]c3=O)C2O1` (stereo not drawn) [Compound 25d, 1-(6-Hydroxymethyl-2,2-dipentadecyl-tetrahydro-furo[3,4-d][1,3]dioxol-4-yl)-1H-pyrimidin-2,4-dione], for which the melting point came out at 93 °C.

The compound `CCCCCCCCCCCCCCCCCCN(CC#CCCl)CCCCCCCCCCCCCCCCCC` [Compound 51, 4-Chloro-N,N-dioctadecylbut-2-yn-1-amine] came in with a melting point of 51 to 52 °C.

Regarding `CCCCCCCCCCCCCCCCCCN(CC#CCN(CCCCCCCCCCCCCCCCCC)CCCCCCCCCCCCCCCCCC)CCCCCCCCCCCCCCCCCC` [Compound 52, N,N,N′,N′-Tetraoctadecylbut-2-yne-1,4-diamine], the melting point is 55 to 56 °C.

`CCCCCCCCCCCCCCCCCCN(CCCCCCCCCCCCCCCCCC)C(=O)CCC(=O)O` [Compound 46, 4-(Dioctadecylamino)-4-oxobutanoic acid]: the melting point lay within 68 to 69 °C.

In turn, `CCCCCCCCCCCCCCCCCCNC(=O)CCC(=O)O` [Compound 58, 4-(Octadecylamino)-4-oxobutanoic acid] returned a melting point of 124 to 125 °C.

In turn, `CCCCCCCCCCCCCCCCCCN(CCCCCCCCCCCCCCCCCC)C(C)C(=O)OC` (stereo not drawn) [Compound 41, Methyl N,N-dioctadecyl-2-aminopropionate] returned a melting point of 44 to 45 °C.

Consider `COc1ccc(C(OC[C@H]2O[C@@H](n3cnc4c(=O)n(C/C=C(\C)CC/C=C(\C)CCC=C(C)C)cnc43)C[C@@H]2O)(c2ccccc2)c2ccc(OC)cc2)cc1` [Compound 4b, 9-((2R,4S,5R)-5-((Bis(4-methoxyphenyl)(phenyl)methoxy)-methyl)-4-hydroxytetrahydrofuran-2-yl)-1-((2E,6E)-3,7,11-trimethyldodeca-2,6,10-trienyl)-1H-purin-6(9H)-on], for which the melting point came out at 68 °C.
